# Experimental data as given in ChEMBL document CHEMBL1201862, “PubChem BioAssay data set” (2004).
#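 Where inhibition never reached the appropriate level, the endpoint shown equals the highest concentration tested. Otherwise, values were interpolated linearly from a five-concentration, 48-hour dose response in 96-well plates. GI50 = concentration required for 50% inhibition of growth.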 Calls of active or inactive are those of the source. No stated cut-off is given here; in the data, active = GI50 up to about 1.1 µM and inactive = higher.
# Legend:
# Test in all cases: growth of human tumour cells (NCI), 48 h
# 786-0 = tested on: 786-0
# A498 = tested on: A498
# A549 = tested on: A549
# ACHN = tested on: ACHN
# BT-549 = tested on: BT-549
# CCRF-CEM = tested on: CCRF-CEM
# COLO 205 = tested on: COLO 205
# DU-145 = tested on: DU-145
# EKVX = tested on: EKVX
# HCC 2998 = tested on: HCC 2998
# HCT-116 = tested on: HCT-116
# HCT-15 = tested on: HCT-15
# HL-60 = tested on: HL-60
# HOP-62 = tested on: HOP-62
# HOP-92 = tested on: HOP-92
# HT-29 = tested on: HT-29
# Hs-578T = tested on: Hs-578T
# IGROV-1 = tested on: IGROV-1
# K562 = tested on: K562
# KM12 = tested on: KM12
# M14 = tested on: M14
# MCF7 = tested on: MCF7
# MDA-MB-231 = tested on: MDA-MB-231
# MDA-MB-435 = tested on: MDA-MB-435
# MDA-N = tested on: MDA-N
# MOLT-4 = tested on: MOLT-4
# Malme-3M = tested on: Malme-3M
# NCI-H226 = tested on: NCI-H226
# NCI-H23 = tested on: NCI-H23
# NCI-H460 = tested on: NCI-H460
# NCI-H522 = tested on: NCI-H522
# NCI/ADR-RES = tested on: NCI/ADR-RES
# OVCAR-3 = tested on: OVCAR-3
# OVCAR-4 = tested on: OVCAR-4
# OVCAR-5 = tested on: OVCAR-5
# OVCAR-8 = tested on: OVCAR-8
# PC-3 = tested on: PC-3
# RPMI-8226 = tested on: RPMI-8226
# RXF 393 = tested on: RXF 393
# SF-268 = tested on: SF-268
# SF-295 = tested on: SF-295
# SF-539 = tested on: SF-539
# SK-MEL-28 = tested on: SK-MEL-28
# SK-MEL-2 = tested on: SK-MEL-2
# SK-MEL-5 = tested on: SK-MEL-5
# SK-OV-3 = tested on: SK-OV-3
# SN12C = tested on: SN12C
# SNB-19 = tested on: SNB-19
# SNB-75 = tested on: SNB-75
# SR = tested on: SR
# SW-620 = tested on: SW-620
# T47D = tested on: T47D
# TK-10 = tested on: TK-10
# U-251 = tested on: U-251
# UACC-257 = tested on: UACC-257
# UACC-62 = tested on: UACC-62
# UO-31 = tested on: UO-31
# CAKI-1 = tested on: CAKI-1
# LOX IMVI = tested on: LOX IMVI
smiles,measurement,setting,value
C=CC(Br)(CBr)CCC(Br)C(C)(C)Cl (stereo not drawn),GI50,786-0,2.35 µM (inactive)
same,GI50,A498,5.16 µM (inactive)
same,GI50,A549,11.5 µM (inactive)
same,GI50,ACHN,2.42 µM (inactive)
same,GI50,BT-549,6.52 µM (inactive)
same,GI50,CCRF-CEM,2.22 µM (inactive)
same,GI50,COLO 205,2.21 µM (inactive)
same,GI50,DU-145,3.37 µM (inactive)
same,GI50,EKVX,8.18 µM (inactive)
same,GI50,HCC 2998,6.22 µM (inactive)
same,GI50,HCT-116,1.64 µM (inactive)
same,GI50,HCT-15,2.58 µM
same,GI50,HL-60,0.807 µM (active)
same,GI50,HOP-62,3.78 µM (inactive)
same,GI50,HOP-92,2.04 µM (inactive)
same,GI50,HT-29,1.53 µM (inactive)
same,GI50,Hs-578T,3.4 µM (inactive)
same,GI50,IGROV-1,5.31 µM (inactive)
same,GI50,K562,1.75 µM (inactive)
same,GI50,KM12,1.6 µM (inactive)
same,GI50,M14,5.14 µM (inactive)
same,GI50,MCF7,1.83 µM (inactive)
same,GI50,MDA-MB-231,2.49 µM (inactive)
same,GI50,MDA-MB-435,2.3 µM (inactive)
same,GI50,MDA-N,3.09 µM (inactive)
same,GI50,MOLT-4,0.555 µM (active)
same,GI50,Malme-3M,6.27 µM (inactive)
same,GI50,NCI-H226,25.3 µM (inactive)
same,GI50,NCI-H23,6.31 µM (inactive)
same,GI50,NCI-H460,2.21 µM (inactive)
same,GI50,NCI-H522,1.38 µM (inactive)
same,GI50,NCI/ADR-RES,3.92 µM (inactive)
same,GI50,OVCAR-3,2.23 µM (inactive)
same,GI50,OVCAR-4,4.08 µM (inactive)
same,GI50,OVCAR-5,7.11 µM (inactive)
same,GI50,OVCAR-8,4.42 µM (inactive)
same,GI50,PC-3,3.27 µM (inactive)
same,GI50,RPMI-8226,0.579 µM (active)
same,GI50,RXF 393,2.99 µM (inactive)
same,GI50,SF-268,2.02 µM (inactive)
same,GI50,SF-295,1.82 µM (inactive)
same,GI50,SF-539,1.99 µM (inactive)
same,GI50,SK-MEL-28,2.36 µM (inactive)
same,GI50,SK-MEL-2,8.73 µM (inactive)
same,GI50,SK-MEL-5,7.76 µM (inactive)
same,GI50,SK-OV-3,16.3 µM (inactive)
same,GI50,SN12C,5.48 µM (inactive)
same,GI50,SNB-19,1.71 µM (inactive)
same,GI50,SNB-75,2.71 µM (inactive)
same,GI50,SR,1.66 µM (inactive)
same,GI50,SW-620,2.05 µM (inactive)
same,GI50,T47D,1.67 µM (inactive)
same,GI50,TK-10,2.72 µM (inactive)
same,GI50,U-251,1.53 µM (inactive)
same,GI50,UACC-257,3.87 µM (inactive)
same,GI50,UACC-62,4.78 µM (inactive)
same,GI50,UO-31,1.65 µM (inactive)
Cc1cn(Cc2cccc(C3=NCCCN3)c2)c(=O)n(Cc2cccc(C3=NCCCN3)c2)c1=O,GI50,786-0,> 100 µM (inactive)
same,GI50,A498,> 100 µM (inactive)
same,GI50,A549,> 100 µM (inactive)
same,GI50,ACHN,> 100 µM (inactive)
same,GI50,BT-549,> 100 µM (inactive)
same,GI50,CAKI-1,> 100 µM (inactive)
same,GI50,CCRF-CEM,> 100 µM (inactive)
same,GI50,COLO 205,> 100 µM (inactive)
same,GI50,DU-145,> 100 µM (inactive)
same,GI50,EKVX,> 100 µM (inactive)
same,GI50,HCC 2998,> 100 µM (inactive)
same,GI50,HCT-116,> 100 µM (inactive)
same,GI50,HCT-15,> 100 µM
same,GI50,HL-60,> 100 µM (inactive)
same,GI50,HOP-62,> 100 µM (inactive)
same,GI50,HOP-92,> 100 µM (inactive)
same,GI50,Hs-578T,> 100 µM (inactive)
same,GI50,IGROV-1,> 100 µM (inactive)
same,GI50,K562,> 100 µM (inactive)
same,GI50,KM12,> 100 µM (inactive)
same,GI50,LOX IMVI,> 100 µM (inactive)
same,GI50,M14,> 100 µM (inactive)
same,GI50,MCF7,> 100 µM (inactive)
same,GI50,MDA-MB-231,> 100 µM (inactive)
same,GI50,MDA-MB-435,> 100 µM (inactive)
same,GI50,MDA-N,> 100 µM (inactive)
same,GI50,MOLT-4,> 100 µM (inactive)
same,GI50,Malme-3M,> 100 µM (inactive)
same,GI50,NCI-H23,> 100 µM (inactive)
same,GI50,NCI-H460,> 100 µM (inactive)
same,GI50,NCI-H522,> 100 µM (inactive)
same,GI50,NCI/ADR-RES,> 100 µM (inactive)
same,GI50,OVCAR-3,> 100 µM (inactive)
same,GI50,OVCAR-4,> 100 µM (inactive)
same,GI50,OVCAR-5,> 100 µM (inactive)
same,GI50,OVCAR-8,> 100 µM (inactive)
same,GI50,PC-3,> 100 µM (inactive)
same,GI50,RPMI-8226,> 100 µM (inactive)
same,GI50,SF-268,> 100 µM (inactive)
same,GI50,SF-295,> 100 µM (inactive)
same,GI50,SK-MEL-28,> 100 µM (inactive)
same,GI50,SK-MEL-2,> 100 µM (inactive)
same,GI50,SK-MEL-5,> 100 µM (inactive)
same,GI50,SK-OV-3,> 100 µM (inactive)
same,GI50,SN12C,25.4 µM (inactive)
same,GI50,SNB-19,> 100 µM (inactive)
same,GI50,SNB-75,83.6 µM (inactive)
same,GI50,SR,> 100 µM (inactive)
same,GI50,SW-620,> 100 µM (inactive)
same,GI50,T47D,> 100 µM (inactive)
same,GI50,TK-10,> 100 µM (inactive)
same,GI50,U-251,> 100 µM (inactive)
same,GI50,UACC-257,> 100 µM (inactive)
same,GI50,UACC-62,> 100 µM (inactive)
same,GI50,UO-31,> 100 µM (inactive)
Clc1ccc(C(Cc2cccc(Cl)c2)c2c(Cl)nc(N3CCNCC3)nc2Cl)cc1 (stereo not drawn),GI50,786-0,14.4 µM (inactive)
same,GI50,A498,15.2 µM (inactive)
same,GI50,A549,16 µM (inactive)
same,GI50,ACHN,15.5 µM (inactive)
same,GI50,BT-549,20.6 µM (inactive)
same,GI50,CAKI-1,12.1 µM (inactive)
same,GI50,CCRF-CEM,15.3 µM (inactive)
same,GI50,COLO 205,2.9 µM (inactive)
same,GI50,DU-145,19.7 µM (inactive)
same,GI50,EKVX,0.128 µM (active)
same,GI50,HCC 2998,15.1 µM (inactive)
same,GI50,HCT-116,13.2 µM (inactive)
same,GI50,HCT-15,13.6 µM
same,GI50,HL-60,11.1 µM (inactive)
same,GI50,HOP-62,15.4 µM (inactive)
same,GI50,HOP-92,13.9 µM (inactive)
same,GI50,HT-29,> 100 µM (inactive)
same,GI50,Hs-578T,19.8 µM (inactive)
same,GI50,IGROV-1,69.2 µM (inactive)
same,GI50,K562,12.6 µM (inactive)
same,GI50,KM12,13.9 µM (inactive)
same,GI50,LOX IMVI,12.9 µM (inactive)
same,GI50,M14,13.4 µM (inactive)
same,GI50,MCF7,10.8 µM (inactive)
same,GI50,MDA-MB-231,13.5 µM (inactive)
same,GI50,MDA-MB-435,16.7 µM (inactive)
same,GI50,MDA-N,16.1 µM (inactive)
same,GI50,MOLT-4,12.2 µM (inactive)
same,GI50,Malme-3M,13.6 µM (inactive)
same,GI50,NCI-H226,3.12 µM (inactive)
same,GI50,NCI-H23,19 µM (inactive)
same,GI50,NCI-H460,16.7 µM (inactive)
same,GI50,NCI-H522,14.8 µM (inactive)
same,GI50,NCI/ADR-RES,18 µM (inactive)
same,GI50,OVCAR-3,15.8 µM (inactive)
same,GI50,OVCAR-4,16.5 µM (inactive)
same,GI50,OVCAR-5,12.5 µM (inactive)
same,GI50,OVCAR-8,19.1 µM (inactive)
same,GI50,PC-3,16.9 µM (inactive)
same,GI50,RPMI-8226,22.3 µM (inactive)
same,GI50,SF-295,16.8 µM (inactive)
same,GI50,SF-539,19.5 µM (inactive)
same,GI50,SK-MEL-28,19.5 µM (inactive)
same,GI50,SK-MEL-2,21.6 µM (inactive)
same,GI50,SK-MEL-5,16.1 µM (inactive)
same,GI50,SK-OV-3,13.7 µM (inactive)
same,GI50,SNB-19,16.9 µM (inactive)
same,GI50,SNB-75,13.3 µM (inactive)
same,GI50,SR,5.38 µM (inactive)
same,GI50,SW-620,16.5 µM (inactive)
same,GI50,T47D,16.4 µM (inactive)
same,GI50,TK-10,16.4 µM (inactive)
same,GI50,U-251,16.4 µM (inactive)
same,GI50,UACC-257,18.8 µM (inactive)
same,GI50,UACC-62,19.5 µM (inactive)
same,GI50,UO-31,12.9 µM (inactive)
